Measured values taken from patent publication US6750244B2, “Compounds active at a novel site on receptor-operated calcium channels useful for treatment of neurological disorders and diseases” (NPS Pharmaceuticals, Inc., priority 1993, dated 2004).
Where two headings read alike, the source gives them in different places.

Tests used:
sound-induced seizures = assay: Sound-induced seizures in Frings mice (reflex epilepsy); type: in vivo; details: Mus musculus, Frings mice
motor performance [1] = assay: Acute motor impairment (rotorod) in mice; details: Frings mice, i.p.
Method: (§1) In this assay, Frings and CF1 mice were injected with test compound and placed on a knurled rod which rotated at a speed of 6 rpm. The ability of the mice to maintain equilibrium for long periods of time was determined; those mice that were unable to maintain equilibrium on the rotorod for 1 min in each of 3 trials were considered impaired.

[2] = molecular target: NMDA receptor-ionophore complex (site labeled by [3H]MK-801); assay: Inhibition of [3H]MK-801 binding in rat cortical/hippocampal washed membrane preparations; details: read-out: IC50 (μM) vs. [3H]MK-801; rat cortical/hippocampal washed membranes
[3] = system: mean arterial blood pressure; details: i.v.
[4] = Lethality (LD50) after oral administration in Frings mice; details: mouse, in vivo
NMDA receptor = assay: Inhibition of NMDA/glycine-induced increases in intracellular calcium in cultured rat cerebellar granule cells (RCGC); type: cell-based; details: NMDA/glycine-induced increases in intracellular calcium, cultured rat cerebellar granule cells; read-out: IC50 (μM) vs. NMDA
[5] = molecular target: T1, norepinephrine uptake site (Rattus norvegicus, UniProt Q63380); assay: Norepinephrine uptake binding assay: [3H]desipramine binding to rat cortical membranes
T1 construct: from tissue; host or cells: rat cortical membranes (per the assay title)
T1 sequence (Q63380 1-617): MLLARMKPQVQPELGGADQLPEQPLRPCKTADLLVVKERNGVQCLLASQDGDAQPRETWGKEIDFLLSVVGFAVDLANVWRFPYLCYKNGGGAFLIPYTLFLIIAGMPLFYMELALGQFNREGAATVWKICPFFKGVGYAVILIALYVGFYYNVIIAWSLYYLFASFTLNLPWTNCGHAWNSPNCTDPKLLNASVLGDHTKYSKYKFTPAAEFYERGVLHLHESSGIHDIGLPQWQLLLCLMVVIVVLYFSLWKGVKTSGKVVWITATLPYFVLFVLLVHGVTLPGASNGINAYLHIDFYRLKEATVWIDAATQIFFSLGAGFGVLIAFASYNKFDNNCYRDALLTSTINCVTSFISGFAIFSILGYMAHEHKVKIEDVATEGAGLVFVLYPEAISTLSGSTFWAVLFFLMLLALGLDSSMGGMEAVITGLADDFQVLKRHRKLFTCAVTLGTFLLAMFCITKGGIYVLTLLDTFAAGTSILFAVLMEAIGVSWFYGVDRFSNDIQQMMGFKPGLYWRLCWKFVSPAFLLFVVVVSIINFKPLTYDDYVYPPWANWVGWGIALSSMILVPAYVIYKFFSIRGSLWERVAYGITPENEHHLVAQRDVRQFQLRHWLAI

L-type calcium channel = system: T2, L-type calcium channel; assay: Inhibition of KCl depolarization-induced increases in intracellular calcium in cultured rat cerebellar granule cells; type: cell-based; details: cultured rat cerebellar granule cells; read-out: L-type calcium channel: estimated IC50, KCl depolarization-induced increases in intracellular calcium
T2 construct: L-type calcium channel: estimated IC50, KCl depolarization-induced increases in intracellular calcium; other: cultured
Text: The ability of arylalkylamines to inhibit dihydropyridine-sensitive Ca^2+ channels was examined in cerebellar granule cells and a rat aortic smooth muscle cell line, A7r5 cells.

serotonin uptake site = molecular target: T3, serotonin uptake site (Rattus norvegicus, UniProt P31652); assay: Serotonin uptake binding assay: [3H]citalopram binding to rat forebrain membranes
T3 construct: from tissue; host or cells: rat forebrain membranes (per the assay title)
T3 sequence (P31652 whole entry): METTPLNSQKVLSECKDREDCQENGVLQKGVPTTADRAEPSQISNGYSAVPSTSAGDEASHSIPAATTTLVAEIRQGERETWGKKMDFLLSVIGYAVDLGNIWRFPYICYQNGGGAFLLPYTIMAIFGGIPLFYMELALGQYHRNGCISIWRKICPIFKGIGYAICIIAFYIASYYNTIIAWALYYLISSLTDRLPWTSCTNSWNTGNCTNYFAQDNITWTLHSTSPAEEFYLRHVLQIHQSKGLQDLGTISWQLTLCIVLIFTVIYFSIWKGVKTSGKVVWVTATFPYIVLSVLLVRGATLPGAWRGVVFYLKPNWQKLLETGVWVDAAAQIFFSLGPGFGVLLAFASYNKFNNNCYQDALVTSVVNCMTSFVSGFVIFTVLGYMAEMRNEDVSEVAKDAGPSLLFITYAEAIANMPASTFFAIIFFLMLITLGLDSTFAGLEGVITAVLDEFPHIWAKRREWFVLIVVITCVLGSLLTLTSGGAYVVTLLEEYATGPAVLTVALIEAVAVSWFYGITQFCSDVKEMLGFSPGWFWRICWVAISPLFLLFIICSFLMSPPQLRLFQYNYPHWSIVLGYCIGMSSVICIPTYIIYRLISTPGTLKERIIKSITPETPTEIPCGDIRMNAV

motor performance [6] = assay: Motor toxicity (TD50) in rats; details: rats, oral, 25 mg/kg
in vivo = details: Frings, mouse, in vivo, ip
Method: as §1

thermal nociception [7] = type: in vivo, rats; details: 25 mg/kg i.p.
Method: In this standard assay, the thermal nociceptive stimulus was 52° C. warm water with the latency to tail flick or withdrawal taken as the endpoint.

[8] = system: maximal electroshock-induced seizures; assay: Maximal electroshock-induced seizures in rats; type: in vivo; details: rats, oral, 25 mg/kg
[9] = system: mean arterial pressure, heart rate, ECG; assay: Cardiovascular activity in conscious beagle dogs
dopamine uptake site = molecular target: T4, dopamine uptake site (Cavia porcellus, UniProt H0WCX4); assay: Dopamine uptake binding assay: [3H]WIN-35,428 binding to guinea pig striatal membranes
T4 construct: from tissue; host or cells: guinea pig striatal membranes (per the assay title)
T4 sequence (H0WCX4 1-619): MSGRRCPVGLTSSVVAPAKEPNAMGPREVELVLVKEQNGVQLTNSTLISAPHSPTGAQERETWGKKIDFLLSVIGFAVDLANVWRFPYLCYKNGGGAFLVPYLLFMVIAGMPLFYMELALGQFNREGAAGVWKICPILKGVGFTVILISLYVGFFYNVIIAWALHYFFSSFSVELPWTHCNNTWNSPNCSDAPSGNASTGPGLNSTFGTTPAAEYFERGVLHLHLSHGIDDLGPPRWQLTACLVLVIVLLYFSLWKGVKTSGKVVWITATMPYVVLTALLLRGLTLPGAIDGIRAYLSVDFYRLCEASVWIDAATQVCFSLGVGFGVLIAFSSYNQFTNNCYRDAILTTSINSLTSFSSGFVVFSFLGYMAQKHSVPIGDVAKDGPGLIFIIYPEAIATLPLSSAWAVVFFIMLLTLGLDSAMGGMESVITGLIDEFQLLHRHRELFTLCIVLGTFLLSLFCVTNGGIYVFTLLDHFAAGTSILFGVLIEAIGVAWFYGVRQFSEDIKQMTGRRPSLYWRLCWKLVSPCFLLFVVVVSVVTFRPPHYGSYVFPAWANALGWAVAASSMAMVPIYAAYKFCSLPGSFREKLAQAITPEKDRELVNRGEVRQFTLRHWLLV

focal ischemic stroke = assay: Rat model of focal ischemic stroke (vessel occlusion); type: in vivo, rats; details: i.p. 2 mg/kg 30 min prior to vessel occlusion and 2 mg/kg 3 hr post-occlusion
behavior [10] = assay: Behavioral effects in conscious beagle dogs
thermal nociception [11] = type: in vivo, rats; details: 25 mg/kg i.p.; remark: listed apart in the source
Method: In these experiments, a 52° C. hot plate was used as the nociceptive stimulus.

behavior [12] = assay: Behavioral effects in conscious male NMRI mice
chronic neuropathic pain = assay: Rat model of chronic neuropathic pain; type: in vivo, rats
neuronal vacuolization = details: i.p.
[13] = system: delayed rectifier potassium channel; assay: Inhibition of delayed rectifier potassium channel in cultured N1E-115 neuroblastoma cells; type: cell-based; details: read-out: Delayed rectifier potassium channel: estimated IC50
[14] = system: central muscarinic cholinergic receptor; type: binding, rat
[15] = 3 mg/kg i.v. (60 sec bolus injection)
[16] = 10 mg/kg i.v. (60 sec bolus injection)

In the case of `CC(N)CC(c1cccc(F)c1)c1cccc(F)c1` (stereo not shown) [Compound 22, 3,3-bis(3-fluorophenyl)-1-methyl-1-propylamine], the ED50 (sound-induced seizures; ip) is reported as 4.9 mg/kg, the ED50 (sound-induced seizures; oral) is reported as 5.1 mg/kg and the “TD50 (inverted grid)” value (motor performance [1]) is reported as 26.8 mg/kg. For the same molecule, the IC50 [2] was 3.45 µM, the “no significant cardiovascular activity in anesthetized rats at doses up to” value [3] was ≤ 4.47 mg/kg and the LD50 [4] was 18.3 mg/kg. For the same molecule, the IC50 (NMDA receptor) was 0.145 µM.

In the case of `C[C@@H](CN)C(c1cccc(F)c1)c1cccc(F)c1` [Compound 33, 3,3-bis(3-fluorophenyl)-2-methyl-1-propylamine], the “Monoamine uptake binding assays: norepinephrine uptake binding assay, percent block” value ([5]; at 0.1 μM) is reported as 10^f2% at, the “Monoamine uptake binding assays: norepinephrine uptake binding assay, percent block” value ([5]; at 10 μM) is reported as 0.1^g54% at and the ED50 (sound-induced seizures; ip) is reported as 4.6 mg/kg. For the same molecule, the IC50 (L-type calcium channel) was 1600 nM, the “Monoamine uptake binding assays: serotonin uptake binding assay, percent block” value (serotonin uptake site; at 0.1 μM) was 10^g14% at and the “Monoamine uptake binding assays: serotonin uptake binding assay, percent block” value (serotonin uptake site; at 10 μM) was 0.1^h89% at. For the same molecule, the motor toxicity (motor performance [6]) was “no motor toxicity apparent”, the TD50 (in vivo) was 27.8 mg/kg and the “analgesic activity, rat 48° C. tail flick test” value (thermal nociception [7]) was “no significant analgesic activity”. The “anticonvulsant activity against maximal electroshock-induced seizures” value [8] was “significant anticonvulsant activity”, the IC50 [2] was 0.181 µM and the cardiovascular activity ([9]; 0.3 mg/kg i.v. (60 sec bolus injection)) was “no significant cardiovascular activity”. For the same molecule, the mean arterial pressure ([9]; 1 mg/kg i.v. (60 sec bolus injection)) was “transient increases in mean arterial pressure”, the mean arterial pressure [9, 15] was “larger magnitude and longer duration effects” and the heart rate [9, 16] was “a transient increase in heart rate”. For the same molecule, the mean arterial pressure [9, 16] was “larger magnitude and longer duration effects”, the “changes in the ECG” value ([9]; doses up to 10 mg/kg i.v. (60 sec bolus injection)) was “no significant drug-induced changes in the ECG” and the “no significant cardiovascular activity in anesthetized rats at doses up to” value [3] was “up to 3 mg/kg”. The “Monoamine uptake binding assays: dopamine uptake binding assay, percent block” value (dopamine uptake site; at 0.1 μM) was 23% at, the “Monoamine uptake binding assays: dopamine uptake binding assay, percent block” value (dopamine uptake site; at 10 μM) was 0.1^f86% at and the “neuroprotectant activity in a rat model of focal ischemic stroke” value (focal ischemic stroke) was “significant neuroprotectant activity”. For the same molecule, the behavioral effects (behavior [10]; [15]) was “licking of the mouth”, the behavioral effects (behavior [10]; [16]) was “dilated pupils, whole body tremors, incoordination, licking of the mouth, salivation, and panting” and the “analgesic activity, rat 52° C. hot plate test” value (thermal nociception [11]) was “no significant analgesic activity”. The behavioral effects (behavior [12]; 8 mg/kg i.p.) was “excitation, increased reactivity to touch, and hypothermia”, the behavioral effects (behavior [12]; 64 mg/kg i.p.) was “convulsions” and the behavioral effects (behavior [12]; 2 and 4 mg/kg i.p.) was “no behavioral effects”. The behavioral effects (behavior [12]; 16 and 32 mg/kg i.p.) was “excitation, Straub tail, tremor, jumping, stereotypies, hypothermia, and mydriasis”, the behavioral effects (behavior [12]; 128 and 256 mg/kg i.p.) was “convulsions and death” and the “analgesic activity, chronic neuropathic pain” value (chronic neuropathic pain; i.p., doses of 3-10 mg/kg) was “significant analgesic activity”. The “analgesic activity, chronic neuropathic pain” value (chronic neuropathic pain; i.th., doses ranging from 15 to 80 μg) was “significant analgesic activity”, the IC50 (NMDA receptor) was 0.06 µM and the “dose without neuronal vacuolization” value (neuronal vacuolization) was 30 mg/kg. The IC50 [13] was > 10000 nM, the “Central muscarinic cholinergic receptor: percent block of [3H]QNB binding” value ([14]; at 0.1 μM) was 42% at and the “Central muscarinic cholinergic receptor: percent block of [3H]QNB binding” value ([14]; at 10 μM) was 0.199% at.
